{"source": "patent US11312687B2", "about": "“7H-azulene [1,2,3-i,j] isoquinolin-7-one compound, single crystal and use thereof” (Hunan University of Chinese Medicine, priority 2017, dated 2022)", "tested_on": "PC12 cells damaged by Aβ25-35", "assay": "Protective effect on PC12 cells damaged by Aβ25-35 (MTT cell viability)", "assay_type": "cell-based, rat", "description": "Protective effect of 6-hydroxy-5,8-dimethoxy-7H-azulene [1,2,3-i,j] isoquinolin-7-one on PC12 cells damaged by Aβ25-35: cell seeding in the 96-well plate was the same as above, and the experiment was divided into 5 groups, 4 holes in each group.", "note": "Like-named read-outs stand apart in the source and are kept apart here."}
{"smiles": "COc1cc2ccnc3c2c(c1O)-c1c-3cccc(OC)c1=O", "note": "[6-hydroxy-5,8-dimethoxy-7H-azulene [1,2,3-i,j] isoquinolin-7-one]", "values": [{"measurement": "viability at 0.5 µg/mL", "setting": "Rattus norvegicus, PC-12, 0.5 ug·mL^-1 sample, 30 μmol/L Aβ25-35, 24 h, MTT, x ± s, n = 4", "value": "85.8 ± 1.6", "unit": "%"}, {"measurement": "viability at 1 µg/mL", "setting": "Rattus norvegicus, PC-12, 1.0 ug·mL^-1 sample, 30 μmol/L Aβ25-35, 24 h, MTT, x ± s, n = 4, read-out: cell viability (%)", "value": "103 ± 1.8", "unit": "%"}, {"measurement": "viability at 5 µg/mL", "setting": "Rattus norvegicus, PC-12, 5.0 ug·mL^-1 sample, 30 μmol/L Aβ25-35, 24 h, MTT, x ± s, n = 4", "value": "77.4 ± 3.8", "unit": "%"}, {"measurement": "viability at 1 µg/mL", "setting": "Rattus norvegicus, PC-12, concentration of 1.0 μg·mL^-1, 30 μmol/L Aβ25-35, read-out: viability of PC12 damaged cells", "value": "> 95", "unit": "%"}, {"measurement": "cell viability compared to model group", "setting": "three different concentrations (0.5, 1.0, 5.0 μg·mL^-1), P<0.01 vs model group", "value": "significantly increased cell viability"}]}
